The subject of test [1] is a-TCmu (RNA, aptamer) GGGCCUAAAACAUACCAGAUCGCCACCCGCGCUUUAAUCUGGAGAGGUGAAGAAUACGACCACCUAGGCUC
Briefly: equilibrium filtration, HPLC. As to conditions: Na+ 100 mM; Mg2+ 10 mM; K+ (20 mM potassium phosphate buffer); 20 mM potassium phosphate pH 7.5 (presumed).

For test [2] the test system is unchanged. Briefly: fluorescence titration (intrinsic tetracycline fluorescence). To be noted: 100 mM NaCl, 10 mM MgCl2; 20 mM potassium phosphate pH 7.5, 25 °C; fluorescence yield up about 12 times.
The test system of test [3] is a-TC40 (DNA, aptamer) GTTTGTGTATTACAGTTATGTTACCCTCATTTTTCTGAAC
The test is described as follows: equilibrium filtration, HPLC. As to conditions: 100 mM NaCl, 5 mM KCl, 2 mM MgCl2, 1 mM CaCl2; 20 mM Tris/HCl pH 7.6 (binding buffer listed for TC); filter leakage 0.53.

The test system of test [4] is a-TC76 (DNA, aptamer) CGTACGGAATTCGCTAGCCCCCCGGCAGGCCACGGCTTGGGTTGGTCCCACTGCGCGTGGATCCGAGCTCCACGTG
Briefly: equilibrium filtration, HPLC. To be noted: 100 mM NaCl, 5 mM KCl, 2 mM MgCl2, 1 mM CaCl2; 20 mM Tris/HCl pH 7.6 (binding buffer listed for TC).

Test [5] concerns a-TC8 (amino, on DynaEpoxy) (DNA, aptamer) CGGTGGTG
Briefly: bead capture, HPLC. As to conditions: room temperature, 1 h; capture significantly higher than nonsense aptamer.

In test [6] the test system is a-TCmu (biotinylated, on DynaSA) (RNA, aptamer) GGGCCUAAAACAUACCAGAUCGCCACCCGCGCUUUAAUCUGGAGAGGUGAAGAAUACGACCACCUAGGCUC
The test is described as follows: bead capture, HPLC. As to conditions: room temperature, 1 h; eluted with 2 M NaCl and 80 °C.

Test [7] deals with a-TC40 (amino, on DynaEpoxy) (DNA, aptamer) GTTTGTGTATTACAGTTATGTTACCCTCATTTTTCTGAAC
The test is described as follows: bead capture, HPLC. As to conditions: room temperature, 1 h; capture significantly higher than nonsense aptamer.

Test [8] relates to a-SDM (DNA, aptamer) GAGGGCAACGAGTGTTTATAGA
The test is described as follows: equilibrium filtration (3 kD filter), HPLC. To be noted: 50 mM NaCl, 5 mM KCl, 5 mM MgCl2; 20 mM Tris/HCl pH 8 (BBSDM).

For test [9], the system named is a-SMZ-b (on DynaSA) (DNA, aptamer) TTAGCTTATGCGTTGGCCGGGATAAGGATCCAGCCGTTGTAGATTTGCGTTCTAACTCTC
The test is described as follows: bead capture, HPLC. To be noted: room temperature, 1 h; around 2% captured, no elution, data not shown.

The subject of test [10] is a-SMZ (DNA, aptamer) TTAGCTTATGCGTTGGCCGGGATAAGGATCCAGCCGTTGTAGATTTGCGTTCTAACTCTC
The test is described as follows: equilibrium filtration, HPLC. To be noted: 100 mM NaCl, 5 mM KCl, 2 mM MgCl2, 1 mM CaCl2; 20 mM Tris/HCl pH 7.6 (binding buffer listed for SMZ); highest aptamer 2.5 µM.

Turning to `CN(C)[C@@H]1C(=O)C(C(N)=O)=C(O)[C@@]2(O)C(=O)C3=C(O)c4c(O)cccc4[C@@](C)(O)[C@H]3C[C@@H]12`, the k in test [1] is 64 nM; in test [2] it was ~ 60 nM; in test [3], 100 nM; in test [4], 14 µM. The binding result in test [5], in [6] and in test [7] was “yes” throughout.
With `COc1cc(NS(=O)(=O)c2ccc(N)cc2)nc(OC)n1`, the binding entry in [8] is given as “no”.
`Cc1cc(C)nc(NS(=O)(=O)c2ccc(N)cc2)n1`: the binding entry in [9] was “weak”. For the same molecule, the k in test [10] is recorded as above 2.5 µM.
